In one test the test system is P388. Nature of the test: Cytotoxicity against mouse P388 cells by MTT assay. In kind it is functional, cell-based. A general note: Formazan colour is commonly taken as a measure of viable cells.
Test [1] can be described thus: Cytotoxicity against CV1 cells by MTT assay. The following applies: Chlorocebus aethiops, CV-1. In kind it is cell-based.
For a further test, the system named is HeLa. Nature of the test: Cytotoxicity against human HeLa cells by MTT assay. In kind it is functional, cell-based.

pEC50: −log10 of the molar value.

The term pEC50 denotes the negative decadic logarithm of the EC50, by convention in mol/L. Low readings indicate a high EC50, high ones a low EC50. For the molecule `O=C1c2[nH]c3ccccc3c2C(=O)c2ccc3ccccc3c21`, the pEC50 was less than 4.30 in the test with P388, less than 4.30 in test [1] and 5.82 in the test with HeLa.
As for `CC1=CC(=O)c2c([nH]c3ccccc23)C1=O`, the values for the pEC50 (in the test on P388; in test [1]; in the test with HeLa) were 6.00, 5.77 and 5.15, respectively.
With `O=C1C=CC(=O)c2c1[nH]c1ccccc21`, the pEC50 (in the test with P388; in test [1]; in the test on HeLa) was less than 4.30 each time.
Regarding `CC1=CC(=O)c2[nH]c3ccccc3c2C1=O` [MURRAYAQUINONE A], the results for the pEC50 (with P388; in test [1]; in the test with HeLa) were 5.64, 5.00 and 4.89, respectively.
On to `O=C1c2ccccc2C(=O)c2c1[nH]c1ccccc21` [BENZOCARBAZOLEDIONE], for which the pEC50 in the test on P388 was less than 4.30; in test [1], less than 4.30; in the test with HeLa, 5.74.
As for `O=C1c2[nH]c3ccccc3c2C(=O)c2cnc3ccccc3c21` [CALOTHRIXIN B], the figures for the pEC50 (in the test on P388; in test [1]; in the test on HeLa) were 5.05, 5.62 and 6.60, respectively.

Values taken from ChEMBL document CHEMBL1146291, “Structure-activity delineation of quinones related to the biologically active Calothrixin B” (Bioorg Med Chem Lett, 2007).
